Experimental data: patent US7205305B2, “Inhibitors of p38” (Vertex Pharmaceuticals Incorporated, priority 1996, dated 2007)

What follows are compounds tested against activated p38 (Homo sapiens, UniProt Q16539) (assay: Inhibition of phosphorylation of EGF receptor peptide ("kinase")). Conditions: inhibition of phosphorylation of EGF receptor peptide by activated p38.
Type: biochemical
Protocol: This assay was carried out in the presence of 10 mM MgCl2, 25 mM β-glycerophosphate, 10% glycerol and 100 mM HEPES buffer at pH 7.6. […] The stock solution was aliquotted into vials. A fixed volume of DMSO or inhibitor in DMSO (final concentration of DMSO in reaction was 5%) was introduced to each vial, mixed and incubated for 15 minutes at room temperature. EGF receptor peptide, […], a phosphoryl acceptor in p38-catalyzed kinase reaction (1), was added to each vial to a final concentration of 200 μM. The kinase reaction was initiated with ATP (100 μM) and the vials were incubated at 30° C. After 30 minutes, the reactions were quenched with equal volume of 10% trifluoroacetic acid (TFA).
The phosphorylated peptide was quantified by HPLC analysis. Separation of phosphorylated peptide from the unphosphorylated peptide was achieved on a reverse phase column (Deltapak, 5 μm, C18 100D, part no. 011795) with a binary gradient of water and acteonitrile, each containing 0.1% TFA.

activated p38, sequence (Q16539 whole entry): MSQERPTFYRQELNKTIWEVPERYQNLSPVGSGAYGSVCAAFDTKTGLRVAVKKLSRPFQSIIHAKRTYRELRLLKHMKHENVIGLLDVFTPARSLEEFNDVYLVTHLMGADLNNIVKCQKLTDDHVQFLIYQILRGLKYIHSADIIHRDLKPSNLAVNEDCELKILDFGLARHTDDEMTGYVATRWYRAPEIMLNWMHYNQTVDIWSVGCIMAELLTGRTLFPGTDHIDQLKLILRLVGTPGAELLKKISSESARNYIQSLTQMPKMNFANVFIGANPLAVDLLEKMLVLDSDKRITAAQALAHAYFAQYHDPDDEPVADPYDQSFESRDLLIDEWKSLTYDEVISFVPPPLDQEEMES

Question: Which IC50 does the source give for `COc1ccc(-c2c(=O)ncn3nc(Sc4ccccc4)ccc23)cc1` [Compound 10] here?
Answer: ≥ 1000 nM

Question: How did the IC50 turn out when `Nc1ccc(F)c(-c2c(=O)ncn3nc(Sc4ccc(F)cc4)ccc23)c1Cl` [Compound 42] was run?
Answer: ≥ 1000 nM

Question: `O=c1ncn2nc(Sc3ccc(F)cc3Cl)ccc2c1-c1cc2c(cc1Cl)OCO2` [Compound 45] was tested. Which IC50 did it give?
Answer: 100 to 1000 nM

Question: How did the IC50 turn out when `CN(C)/C=N\c1ccc(-c2c(=O)ncn3nc(Sc4ccc(F)cc4)ccc23)c(Cl)c1` [Compound 50] was run?
Answer: ≥ 1000 nM

Question: How did the IC50 turn out when `CC(=O)Nc1ccc(-c2c(=O)ncn3nc(Sc4ccc(F)cc4)ccc23)c(Cl)c1` [Compound 51] was run?
Answer: 100 to 1000 nM

Question: How did the IC50 turn out when `O=C(CN1CCOCC1)Nc1ccc(-c2c(=O)ncn3nc(Sc4ccc(F)cc4)ccc23)c(Cl)c1` [Compound 52] was run?
Answer: 100 to 1000 nM

Question: `Nc1cc(F)c(F)cc1SC1=NN2CNC(=O)C(c3c(Cl)cccc3Cl)=C2C=C1` [Compound 119] was tested. Which IC50 did it give?
Answer: 100 to 1000 nM

Question: With `NC(=O)C(c1ccc(Sc2ccccc2)nn1)c1ccc(Cl)cc1Cl` (centres unmarked) [Compound 203] as the compound, how does the IC50 read?
Answer: ≥ 1000 nM

Question: With `NC(=O)C(c1ccc(F)cc1)c1ccc(Sc2ccccc2)nn1` (centres unmarked) [Compound 204] as the compound, how does the IC50 read?
Answer: ≥ 1000 nM

Question: How did the IC50 turn out when `Cc1ccc(Sc2ccc(C(C(N)=O)c3ccc(Cl)cc3Cl)nn2)cc1` (centres unmarked) [Compound 205] was run?
Answer: ≥ 1000 nM

Question: How did the IC50 turn out when `NC(=O)C(c1ccc(Sc2ccc(F)cc2Cl)nn1)c1ccc(N)cc1Cl` (centres unmarked) [Compound 207] was run?
Answer: ≥ 1000 nM

Question: Which IC50 does the source give for `NC(=O)C(c1cccc(-c2cccc([N+](=O)[O-])c2)n1)c1c(Cl)cccc1Cl` (centres unmarked) [Compound 308] here?
Answer: ≥ 1000 nM

Question: `CSc1ccc(-c2cccc(C(C(N)=O)c3c(Cl)cccc3Cl)n2)cc1` (centres unmarked) [Compound 314] was tested. Which IC50 did it give?
Answer: ≥ 1000 nM

Question: How did the IC50 turn out when `NC(=O)C(c1cccc(-c2ccc(C(=O)O)cc2)n1)c1c(Cl)cccc1Cl` (centres unmarked) [Compound 315] was run?
Answer: ≥ 1000 nM

Question: `NC(=O)C(c1cccc(-c2ccc(C=O)cc2)n1)c1c(Cl)cccc1Cl` (centres unmarked) [Compound 316] was tested. Which IC50 did it give?
Answer: ≥ 1000 nM

Question: `NC(=O)C(c1cccc(-c2ccsc2)n1)c1c(Cl)cccc1Cl` (centres unmarked) [Compound 318] was tested. Which IC50 did it give?
Answer: 100 to 1000 nM

Question: Which IC50 does the source give for `NC(=O)C(c1cccc(-c2ccc(C(F)(F)F)cc2)n1)c1c(Cl)cccc1Cl` (centres unmarked) [Compound 319] here?
Answer: ≥ 1000 nM

Question: For `NC(=O)C(c1cccc(-c2cccc(C=O)c2)n1)c1c(Cl)cccc1Cl` (centres unmarked) [Compound 321], which IC50 is on record?
Answer: ≥ 1000 nM

Question: `NC(=O)C(c1cccc(-c2ccc(Cl)s2)n1)c1c(Cl)cccc1Cl` (centres unmarked) [Compound 326] was tested. Which IC50 did it give?
Answer: ≥ 1000 nM

Question: Which IC50 does the source give for `NC(=O)C(c1cccc(-c2ccccc2C=O)n1)c1c(Cl)cccc1Cl` (centres unmarked) [Compound 327] here?
Answer: 100 to 1000 nM

Question: How did the IC50 turn out when `NC(=O)C(c1cccc(-c2cccc([N+](=O)[O-])c2)n1)c1c(F)cccc1Cl` (centres unmarked) [Compound 328] was run?
Answer: ≥ 1000 nM

Question: `NC(=O)C(c1cccc(-c2ccc(Cl)cc2)n1)c1c(F)cccc1Cl` (centres unmarked) [Compound 330] was tested. Which IC50 did it give?
Answer: ≥ 1000 nM

Question: With `Cc1ccc(-c2cccc(C(C(N)=O)c3c(F)cccc3Cl)n2)cc1` (centres unmarked) [Compound 331] as the compound, how does the IC50 read?
Answer: ≥ 1000 nM

Question: For `CSc1ccc(-c2cccc(C(C(N)=O)c3c(F)cccc3Cl)n2)cc1` (centres unmarked) [Compound 334], which IC50 is on record?
Answer: ≥ 1000 nM

Question: With `NC(=O)C(c1cccc(-c2ccc(C(=O)O)cc2)n1)c1c(F)cccc1Cl` (centres unmarked) [Compound 336] as the compound, how does the IC50 read?
Answer: ≥ 1000 nM

Question: How did the IC50 turn out when `NC(=O)C(c1cccc(-c2ccc(C=O)cc2)n1)c1c(F)cccc1Cl` (centres unmarked) [Compound 337] was run?
Answer: ≥ 1000 nM

Question: With `NC(=O)C(c1cccc(-c2cccs2)n1)c1c(F)cccc1Cl` (centres unmarked) [Compound 338] as the compound, how does the IC50 read?
Answer: ≥ 1000 nM

Question: Which IC50 does the source give for `NC(=O)C(c1cccc(-c2ccsc2)n1)c1c(F)cccc1Cl` (centres unmarked) [Compound 339] here?
Answer: ≥ 1000 nM

Question: Which IC50 does the source give for `NC(=O)C(c1cccc(-c2ccc(C(F)(F)F)cc2)n1)c1c(F)cccc1Cl` (centres unmarked) [Compound 340] here?
Answer: ≥ 1000 nM

Question: `NC(=O)C(c1cccc(-c2cccc(C=O)c2)n1)c1c(F)cccc1Cl` (centres unmarked) [Compound 342] was tested. Which IC50 did it give?
Answer: ≥ 1000 nM

Question: How did the IC50 turn out when `COc1cccc(-c2cccc(C(C(N)=O)c3c(F)cccc3Cl)n2)c1` (centres unmarked) [Compound 343] was run?
Answer: ≥ 1000 nM

Question: With `NC(=O)C(c1cccc(-c2cccc(F)c2)n1)c1c(F)cccc1Cl` (centres unmarked) [Compound 344] as the compound, how does the IC50 read?
Answer: ≥ 1000 nM

Question: How did the IC50 turn out when `COc1ccccc1-c1cccc(C(C(N)=O)c2c(F)cccc2Cl)n1` (centres unmarked) [Compound 345] was run?
Answer: ≥ 1000 nM

Question: Which IC50 does the source give for `NC(=O)C(c1cccc(-c2ccc(Cl)s2)n1)c1c(F)cccc1Cl` (centres unmarked) [Compound 347] here?
Answer: ≥ 1000 nM

Question: With `NC(=O)C(c1cccc(-c2ccccc2C=O)n1)c1c(F)cccc1Cl` (centres unmarked) [Compound 348] as the compound, how does the IC50 read?
Answer: ≥ 1000 nM

Question: `NC(=O)C(c1cccc(-c2ccc3ccccc3c2)n1)c1c(Cl)cccc1Cl` (centres unmarked) [Compound 354] was tested. Which IC50 did it give?
Answer: ≥ 1000 nM

Question: For `NC(=O)C(c1cccc(-c2cc3ccccc3o2)n1)c1c(Cl)cccc1Cl` (centres unmarked) [Compound 355], which IC50 is on record?
Answer: ≥ 1000 nM

Question: For `NC(=O)C(c1cccc(-c2cc3ccccc3s2)n1)c1c(Cl)cccc1Cl` (centres unmarked) [Compound 356], which IC50 is on record?
Answer: ≥ 1000 nM

Question: How did the IC50 turn out when `NC(=O)C(c1cccc(-c2occc2C=O)n1)c1c(F)cccc1Cl` (centres unmarked) [Compound 357] was run?
Answer: ≥ 1000 nM

Question: Which IC50 does the source give for `NCCNCc1ccccc1-c1cccc(C(C(N)=O)c2c(Cl)cccc2Cl)n1` (centres unmarked) [Compound 359] here?
Answer: ≥ 1000 nM

Question: Which IC50 does the source give for `NC(=O)C(c1cccc(-c2ccccc2CNCC(O)CO)n1)c1c(Cl)cccc1Cl` (centres unmarked) [Compound 360] here?
Answer: ≥ 1000 nM

Question: For `NC(=O)C(c1cccc(-c2ccccc2)n1)c1c(F)cccc1F` (centres unmarked) [Compound 366], which IC50 is on record?
Answer: ≥ 1000 nM

Question: `NC(=O)C(c1cccc(-c2ccccc2C(F)(F)F)n1)c1c(Cl)cccc1Cl` (centres unmarked) [Compound 374] was tested. Which IC50 did it give?
Answer: 100 to 1000 nM

Question: With `NC(=O)C(c1cccc(-c2ccccc2Cl)n1)c1c(Cl)cccc1Cl` (centres unmarked) [Compound 375] as the compound, how does the IC50 read?
Answer: ≤ 100 nM

Question: For `Cc1cccc(-c2cccc(C(C(N)=O)c3c(Cl)cccc3Cl)n2)c1C` (centres unmarked) [Compound 376], which IC50 is on record?
Answer: ≤ 100 nM

Question: For `CCc1ccccc1-c1cccc(C(C(N)=O)c2c(Cl)cccc2Cl)n1` (centres unmarked) [Compound 377], which IC50 is on record?
Answer: ≤ 100 nM

Question: `NC(=O)C(c1cccc(-c2ccccc2CCO)n1)c1c(Cl)cccc1Cl` (centres unmarked) [Compound 378] was tested. Which IC50 did it give?
Answer: ≤ 100 nM

Question: How did the IC50 turn out when `NC(=O)C(c1cccc(-c2cccc(C(F)(F)F)c2)n1)c1c(Cl)cccc1Cl` (centres unmarked) [Compound 379] was run?
Answer: ≤ 100 nM

Question: Which IC50 does the source give for `NC(=O)C(c1cccc(-c2cccc(CO)c2)n1)c1c(Cl)cccc1Cl` (centres unmarked) [Compound 380] here?
Answer: 100 to 1000 nM

Question: `Cc1cccc(C)c1C(C(N)=O)c1cccc(-c2ccccc2)n1` (centres unmarked) [Compound 381] was tested. Which IC50 did it give?
Answer: 100 to 1000 nM

Question: How did the IC50 turn out when `NC(=O)C(c1cccc(-c2cccc(Cl)c2Cl)n1)c1c(Cl)cccc1Cl` (centres unmarked) [Compound 382] was run?
Answer: ≤ 100 nM

Question: With `NC(=O)C(c1cccc(-c2ccccc2F)n1)c1c(Cl)cccc1Cl` (centres unmarked) [Compound 383] as the compound, how does the IC50 read?
Answer: ≤ 100 nM

Question: Which IC50 does the source give for `NC(=O)C(c1cncc(-c2ccccc2)n1)c1c(Cl)cccc1Cl` (centres unmarked) [Compound 384] here?
Answer: 100 to 1000 nM

Question: With `COCOc1ccccc1-c1cccc(C(C(N)=O)c2c(Cl)cccc2Cl)n1` (centres unmarked) [Compound 385] as the compound, how does the IC50 read?
Answer: 100 to 1000 nM

Question: Which IC50 does the source give for `NC(=O)C(c1cccc(-c2ccccc2O)n1)c1c(Cl)cccc1Cl` (centres unmarked) [Compound 386] here?
Answer: ≥ 1000 nM

Question: `NC(=O)C(c1cccc(-c2cc(C(F)(F)F)cc(C(F)(F)F)c2)n1)c1c(Cl)cccc1Cl` (centres unmarked) [Compound 387] was tested. Which IC50 did it give?
Answer: ≥ 1000 nM

Question: For `NC(=O)C(c1cccc(-c2cc(F)c(F)c(F)c2)n1)c1c(Cl)cccc1Cl` (centres unmarked) [Compound 388], which IC50 is on record?
Answer: ≤ 100 nM

Question: Which IC50 does the source give for `COCOc1cc(F)ccc1-c1cccc(C(C(N)=O)c2c(Cl)cccc2Cl)n1` (centres unmarked) [Compound 389] here?
Answer: 100 to 1000 nM

Question: For `NC(=O)C(c1cccc(-c2ccc(F)cc2O)n1)c1c(Cl)cccc1Cl` (centres unmarked) [Compound 390], which IC50 is on record?
Answer: ≥ 1000 nM

Question: For `NC(=O)C(c1cccc(-c2ccc(F)cc2C(F)(F)F)n1)c1c(Cl)cccc1Cl` (centres unmarked) [Compound 391], which IC50 is on record?
Answer: 100 to 1000 nM

Question: Which IC50 does the source give for `NC(=O)C(c1cccc(-c2cc(Cl)cc(Cl)c2)n1)c1c(Cl)cccc1Cl` (centres unmarked) [Compound 392] here?
Answer: 100 to 1000 nM

Question: With `COCOCc1cc(F)ccc1-c1cccc(C(C(N)=O)c2c(Cl)cccc2Cl)n1` (centres unmarked) [Compound 393] as the compound, how does the IC50 read?
Answer: 100 to 1000 nM

Question: With `NC(=O)C(c1cccc(-c2ccc(F)cc2CO)n1)c1c(Cl)cccc1Cl` (centres unmarked) [Compound 394] as the compound, how does the IC50 read?
Answer: ≤ 100 nM

Question: Which IC50 does the source give for `Cc1cc(-c2cccc(C(C(N)=O)c3c(Cl)cccc3Cl)n2)ccc1F` (centres unmarked) [Compound 395] here?
Answer: ≤ 100 nM

Question: `NC(=O)C(c1cccc(-c2ccc(F)cc2F)n1)c1c(Cl)cccc1Cl` (centres unmarked) [Compound 396] was tested. Which IC50 did it give?
Answer: ≤ 100 nM

Question: How did the IC50 turn out when `NC(=O)C(c1cccc(-c2ccccc2)n1)c1cc2c(cc1Cl)OCO2` (centres unmarked) [Compound 397] was run?
Answer: ≥ 1000 nM

Question: For `NC(=O)C(c1cccc(-c2c(F)cc(F)cc2F)n1)c1c(Cl)cccc1Cl` (centres unmarked) [Compound 399], which IC50 is on record?
Answer: ≤ 100 nM

Question: `Cc1c(Cl)cccc1-c1cccc(C(C(N)=O)c2c(Cl)cccc2Cl)n1` (centres unmarked) [Compound 1301] was tested. Which IC50 did it give?
Answer: ≤ 100 nM
